Data on two molecules can be found in article PMC7656302 (Cancers, 2020).

The nature of one data set: clinical. The following applies: human, in vivo. On the procedure:
Concentration-time curve and PK parameters were analyzed for each compound. Maximal concentrations (Cmax) and the time to reach the Cmax (Tmax) were graphically identified and the AUC was calculated with a non-compartmental method.

Another data set has as its system HIF-1α. The conditions noted are these: colon cancers, oxygen concentrations from 5 to 1%; cited from earlier work.

The term Tmax denotes the time from dosing to the highest level. By AUC is commonly meant the area under the concentration-time curve, a measure of exposure. A lower AUC goes with low exposure. Regarding `CO[C@H]1C[C@@H]2CC[C@@H](C)[C@@](O)(O2)C(=O)C(=O)N2CCCC[C@H]2C(=O)O[C@H]([C@H](C)C[C@@H]2CC[C@@H](O)[C@H](OC)C2)CC(=O)[C@H](C)/C=C(\C)[C@@H](O)[C@@H](OC)C(=O)[C@H](C)C[C@H](C)/C=C/C=C/C=C/1C` [rapamycin], the concentration at 8 day in the data set “clinical” (D8 rapamycin concentrations) was found to be 6.75 ng/mL. In addition, in the data set “clinical” (Rapamycin D1 Tmax), the time to peak (Tmax) was 3.5 h. In the data set “clinical” (mean AUC of D8 rapamycin), the AUC was 176 ng·h/mL.
Turning to `CCc1c2c(nc3ccc(OC(=O)N4CCC(N5CCCCC5)CC4)cc13)-c1cc3c(c(=O)n1C2)COC(=O)[C@]3(O)CC` [irinotecan], in the data set “clinical” (Irinotecan D1 Tmax), the Tmax is 1.67 h. Further, the AUC in “clinical” (irinotecan mean AUC) is 6740 ng·h/mL; in “clinical” (mean AUC of irinotecan), 6870 ng·h/mL; in the data set “clinical” (mean irinotecan AUCs) it was 5970 ng·h/mL. Moreover, the “inhibition of HIF-1α” value with HIF-1α was “high inhibition of HIF-1α”.
